We go through 10 compounds from ChEMBL document CHEMBL6153029, “Next-generation cancer therapeutics: PROTACs and the role of heterocyclic warheads in targeting resistance” (Eur J Med Chem, 2025).

Molecules are shown by their SMILES.

One test concerns U-87 MG. Nature of the test: Antiproliferative activity against human U87 cells. Type of test: functional, cell-based, U-87MG ATCC.
For test [1], the target named is von Hippel-Lindau disease tumor suppressor/Platelet-derived growth factor receptor beta (Homo sapiens, UniProt P09619+P40337). Nature of the test: PROTAC activity at VHL/PDGFRbeta in human U87 cells assessed as induction of protein degradation by Western blot analysis. The class given is cell-based.
In the next test the test system is MV4-11. Nature of the test: Antiproliferative activity against human MV4-11 cells. The class given is functional, cell-based.
In a further test the test system is LNCaP. Nature of the test: Antiproliferative activity against human LNCaP cells. Type of test: functional, cell-based.
The subject of the next test is LNCaP C4-2B. Nature of the test: Antiproliferative activity against human LNCaP C4-2B cells. The class given is functional, cell-based.
Another test concerns CWR22R. Kind of test: Antiproliferative activity against human 22Rv1 cells. Type of test: functional, cell-based.
The test system of another test is MOLM-13. Nature of the test: Antiproliferative activity against human MOLM-13 cells. Type of test: functional, cell-based.
For another test, the system named is Hs-578T. Nature of the test: Antiproliferative activity against human Hs-578T cells. Type of test: functional, cell-based.
In test [2] the target is T1, Bromodomain-containing protein 4 (Homo sapiens, UniProt O60885). Nature of the test: Binding affinity to BRD4 (unknown origin) assessed as dissociation constant.
Test [3] is described as follows: Upregulation of p53 protein expression in human A549 cells at 3.33 uM relative to control. The class given is functional.
The test system of a further test is A549. Nature of the test: Antiproliferative activity against human A549 cells. The class given is functional, cell-based.
A short description of test [4]: Downregulation of MDM2 protein expression in human A549 cells at 1.11 uM relative to control. Type of test: functional.
Test [5] in a line: Downregulation of MDM2 protein expression in human A549 cells at 3.33 uM relative to control. The class given is functional.
Test [6] is described as follows: Downregulation of MDM2 protein expression in human A549 cells at 10 uM relative to control. Type of test: functional.
A short description of test [7]: Upregulation of p53 protein expression in human A549 cells at 1.11 uM relative to control. Type of test: functional.
Test [8] is described as follows: Upregulation of p53 protein expression in human A549 cells at 10 uM relative to control. The class given is functional.
Test [9] has as its target T2, Protein cereblon/ALK tyrosine kinase receptor/Nucleophosmin (Homo sapiens, UniProt Q9UM73+P06748+Q96SW2). Nature of the test: PROTAC activity at CRBN/NPM/ALK in human KARPAS-299 cells incubated for 48 hrs by Western blotting analysis. Type of test: cell-based. (In general: In western blotting, separated proteins are transferred to a membrane and probed.)
Target sequence in this assay (Q9UM73 whole entry): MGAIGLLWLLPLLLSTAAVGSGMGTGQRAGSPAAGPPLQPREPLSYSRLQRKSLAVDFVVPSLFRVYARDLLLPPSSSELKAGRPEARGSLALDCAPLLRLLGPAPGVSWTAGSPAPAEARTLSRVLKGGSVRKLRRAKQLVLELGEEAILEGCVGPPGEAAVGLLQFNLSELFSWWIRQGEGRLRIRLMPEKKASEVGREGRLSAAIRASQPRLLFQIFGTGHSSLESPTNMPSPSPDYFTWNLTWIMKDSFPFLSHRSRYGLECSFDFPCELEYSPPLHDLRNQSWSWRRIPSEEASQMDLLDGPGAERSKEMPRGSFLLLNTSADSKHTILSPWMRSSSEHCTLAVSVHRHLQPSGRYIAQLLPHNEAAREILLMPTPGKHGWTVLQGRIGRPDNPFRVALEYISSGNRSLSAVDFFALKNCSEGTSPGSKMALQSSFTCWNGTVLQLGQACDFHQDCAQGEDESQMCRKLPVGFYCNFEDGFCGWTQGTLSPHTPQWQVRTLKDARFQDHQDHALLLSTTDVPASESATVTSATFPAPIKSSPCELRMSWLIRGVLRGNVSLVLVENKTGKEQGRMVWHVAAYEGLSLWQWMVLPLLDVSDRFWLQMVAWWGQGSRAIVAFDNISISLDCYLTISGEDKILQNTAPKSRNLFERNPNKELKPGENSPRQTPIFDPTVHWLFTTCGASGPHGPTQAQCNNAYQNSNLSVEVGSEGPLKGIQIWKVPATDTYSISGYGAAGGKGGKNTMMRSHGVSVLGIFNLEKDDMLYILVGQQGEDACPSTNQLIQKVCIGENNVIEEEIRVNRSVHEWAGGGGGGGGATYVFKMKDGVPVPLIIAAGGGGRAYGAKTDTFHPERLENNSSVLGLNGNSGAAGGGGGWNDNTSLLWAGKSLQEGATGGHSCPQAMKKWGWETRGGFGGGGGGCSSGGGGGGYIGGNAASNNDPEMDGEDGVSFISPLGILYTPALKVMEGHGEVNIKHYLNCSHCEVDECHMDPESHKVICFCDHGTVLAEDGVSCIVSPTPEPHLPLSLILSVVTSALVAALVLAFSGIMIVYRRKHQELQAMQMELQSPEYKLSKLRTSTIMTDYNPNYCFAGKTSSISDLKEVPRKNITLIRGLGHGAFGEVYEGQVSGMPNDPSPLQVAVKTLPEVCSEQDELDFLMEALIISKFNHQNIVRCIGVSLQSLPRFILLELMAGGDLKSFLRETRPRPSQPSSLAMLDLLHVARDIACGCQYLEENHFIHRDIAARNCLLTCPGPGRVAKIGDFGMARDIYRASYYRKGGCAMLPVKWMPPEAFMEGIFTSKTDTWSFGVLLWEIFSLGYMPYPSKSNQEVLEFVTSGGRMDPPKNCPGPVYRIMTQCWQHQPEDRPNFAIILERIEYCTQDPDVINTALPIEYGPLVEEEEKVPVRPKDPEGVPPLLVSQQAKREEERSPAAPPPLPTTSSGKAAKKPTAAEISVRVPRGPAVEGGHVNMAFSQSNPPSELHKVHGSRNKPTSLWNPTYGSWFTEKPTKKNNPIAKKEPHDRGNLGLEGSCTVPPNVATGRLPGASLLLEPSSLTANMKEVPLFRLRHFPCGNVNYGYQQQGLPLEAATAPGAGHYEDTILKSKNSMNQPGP
Target sequence in this assay (P06748 whole entry): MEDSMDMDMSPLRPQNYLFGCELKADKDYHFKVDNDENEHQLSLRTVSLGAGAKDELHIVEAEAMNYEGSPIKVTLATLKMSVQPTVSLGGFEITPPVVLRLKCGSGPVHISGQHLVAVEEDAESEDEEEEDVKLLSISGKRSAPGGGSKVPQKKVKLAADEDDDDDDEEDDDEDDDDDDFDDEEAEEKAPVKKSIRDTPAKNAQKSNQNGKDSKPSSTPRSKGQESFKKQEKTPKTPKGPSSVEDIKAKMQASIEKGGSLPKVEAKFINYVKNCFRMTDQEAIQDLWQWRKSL
Target sequence in this assay (Q96SW2 whole entry): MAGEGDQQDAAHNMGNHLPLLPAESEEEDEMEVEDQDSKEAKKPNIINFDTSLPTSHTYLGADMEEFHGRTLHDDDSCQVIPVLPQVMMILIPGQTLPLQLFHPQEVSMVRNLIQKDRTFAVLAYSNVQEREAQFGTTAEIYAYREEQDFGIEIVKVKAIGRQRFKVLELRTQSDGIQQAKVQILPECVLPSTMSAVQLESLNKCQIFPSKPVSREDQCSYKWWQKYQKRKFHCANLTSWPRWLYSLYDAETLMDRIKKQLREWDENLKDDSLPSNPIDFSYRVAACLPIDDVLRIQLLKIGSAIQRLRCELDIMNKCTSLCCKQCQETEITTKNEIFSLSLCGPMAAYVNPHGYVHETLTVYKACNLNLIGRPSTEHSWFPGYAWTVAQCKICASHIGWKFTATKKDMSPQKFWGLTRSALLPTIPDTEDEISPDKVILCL
In test [10] the target is T2, Protein cereblon/ALK tyrosine kinase receptor/Nucleophosmin. Kind of test: PROTAC activity at CRBN/NPM/ALK in human KARPAS-299 cells assessed as maximal degradation of protein at 1 uM incubated for 48 hrs by Western blotting analysis relative to control. The class given is cell-based.
Test [11] concerns the target T3, Glucose-induced degradation protein 4 homolog/EML4-ALK (Homo sapiens, UniProt Q9UM73+Q9HC35+Q8IVV7). Kind of test: PROTAC activity at GID4/EML4-ALK in human NCI-H3122 cells assessed as protein degradation at 1 uM measured for 48 hrs by immunoblot analysis. Type of test: cell-based.
Target sequence in this assay (Q9UM73 whole entry): as the sequence (Q9UM73 whole entry) above
Target sequence in this assay (Q9HC35 whole entry): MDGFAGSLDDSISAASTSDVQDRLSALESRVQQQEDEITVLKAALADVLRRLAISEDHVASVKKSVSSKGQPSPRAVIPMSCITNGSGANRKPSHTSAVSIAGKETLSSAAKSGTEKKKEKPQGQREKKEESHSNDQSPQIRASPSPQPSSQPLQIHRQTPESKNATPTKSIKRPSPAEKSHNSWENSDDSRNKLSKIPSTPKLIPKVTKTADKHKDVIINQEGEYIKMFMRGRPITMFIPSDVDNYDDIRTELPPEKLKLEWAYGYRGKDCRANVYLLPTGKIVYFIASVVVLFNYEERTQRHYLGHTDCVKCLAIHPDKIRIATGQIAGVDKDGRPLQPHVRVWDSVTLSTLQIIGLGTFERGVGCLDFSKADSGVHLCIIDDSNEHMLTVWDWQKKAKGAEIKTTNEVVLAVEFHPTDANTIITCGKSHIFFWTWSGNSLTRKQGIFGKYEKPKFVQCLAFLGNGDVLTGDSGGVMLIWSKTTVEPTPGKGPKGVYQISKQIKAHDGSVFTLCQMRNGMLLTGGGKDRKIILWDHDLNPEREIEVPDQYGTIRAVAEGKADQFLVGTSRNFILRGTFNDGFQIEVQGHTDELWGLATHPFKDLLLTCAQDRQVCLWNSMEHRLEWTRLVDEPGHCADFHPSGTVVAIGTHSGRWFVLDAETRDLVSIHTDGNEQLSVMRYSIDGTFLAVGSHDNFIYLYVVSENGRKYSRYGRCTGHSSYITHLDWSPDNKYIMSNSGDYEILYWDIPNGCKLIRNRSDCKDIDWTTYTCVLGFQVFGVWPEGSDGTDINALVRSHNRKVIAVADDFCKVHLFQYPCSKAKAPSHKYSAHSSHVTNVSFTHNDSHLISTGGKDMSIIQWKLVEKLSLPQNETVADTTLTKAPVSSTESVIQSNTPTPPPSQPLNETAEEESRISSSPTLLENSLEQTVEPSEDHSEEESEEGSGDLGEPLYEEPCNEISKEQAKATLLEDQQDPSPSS
Target sequence in this assay (Q8IVV7 whole entry): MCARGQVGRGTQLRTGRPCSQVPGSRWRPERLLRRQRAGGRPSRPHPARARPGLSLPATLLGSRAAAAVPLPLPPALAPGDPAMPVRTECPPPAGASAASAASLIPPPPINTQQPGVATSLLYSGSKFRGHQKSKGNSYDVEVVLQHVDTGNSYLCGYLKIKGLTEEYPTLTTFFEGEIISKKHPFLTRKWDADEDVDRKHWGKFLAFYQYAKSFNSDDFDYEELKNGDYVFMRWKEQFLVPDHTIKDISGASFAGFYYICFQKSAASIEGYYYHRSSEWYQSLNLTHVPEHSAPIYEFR
Test [12] deals with T3, Glucose-induced degradation protein 4 homolog/EML4-ALK. Kind of test: PROTAC activity at GID4/EML4-ALK in human NCI-H3122 cells assessed as maximal protein degradation at 1 uM measured for 48 hrs by immunoblot analysis relative to control. Type of test: cell-based.
Test [13] addresses T1, Bromodomain-containing protein 4. Nature of the test: Inhibition of BRD4 (unknown origin) at 0.01 umol/L relative to control. The following applies: dose 0.01 µmol/L.
Test [14] shares this target. Nature of the test: Inhibition of BRD4 (unknown origin) at 1 micromol/L relative to control. The following applies: dose 1.0 µmol/L.
Another test deals with THP-1. Nature of the test: Antiproliferative activity against human THP-1 cells. The class given is functional, cell-based.
Another test has as its system HL-60. Kind of test: Antiproliferative activity against human HL-60 cells. The class given is functional, cell-based.
For test [15], the target named is T4, Protein cereblon/Bromodomain-containing protein 4 (Homo sapiens, UniProt O60885+Q96SW2). Nature of the test: PROTAC activity at CRBN/BRD4 in human MV4-11 cells assessed as induction of degradation of BRD4 measured after 24 hrs by Western blot analysis. Type of test: cell-based.
T4 sequence (Q96SW2 whole entry, looked up, other chains not shown): as the sequence (Q96SW2 whole entry) above
For test [16], the target named is T4, Protein cereblon/Bromodomain-containing protein 4. Kind of test: PROTAC activity at CRBN/BRD4 in human MV4-11 cells assessed as induction of degradation of BRD4 by measuring maximal degradation at 10 uM incubated after 24 hrs by Western blot analysis relative to control. The class given is cell-based.
The target in test [17] is Protein cereblon/Tyrosine-protein kinase BTK (Homo sapiens, UniProt Q06187+Q96SW2). Nature of the test: PROTAC activity at BTK/CRBN in human MINO cells assessed as BTK protein degradation at 20 nM measured after 2 hrs by Western blotting analysis. Type of test: cell-based.
For test [18], the target named is Platelet-derived growth factor receptor beta (Homo sapiens) (UniProt P09619). Nature of the test: Inhibition of PDGFRbeta (unknown origin) measured for 48 hrs at 10 uM relative to control.
The next test deals with HCT-116. Kind of test: Antiproliferative activity against human HCT-116 cells assessed as reduction in cell viability incubated for 72 hrs by CCK-8 assay. Type of test: functional, cell-based. The following applies: HCT-116, 72 h. (In general: Tetrazolium assays rely on reduction of a dye to a coloured formazan, in cell work by metabolically active cells.)
Another test deals with Calu-6. Nature of the test: Antiproliferative activity against human Calu-6 cells assessed as reduction in cell viability incubated for 72 hrs by CCK-8 assay. The class given is functional, cell-based. The following applies: Calu-6, 72 h.
The next test relates to A-375. Nature of the test: Antiproliferative activity against human A-375 cells assessed as reduction in cell viability incubated for 72 hrs by CCK-8 assay. Type of test: functional, cell-based. The following applies: A-375, 72 h.
Test [19] deals with T5, Protein cereblon/Mitogen-activated protein kinase 3/Mitogen-activated protein kinase 1 (Homo sapiens, UniProt P27361+P28482+Q96SW2). Kind of test: PROTAC activity at CRBN/ERK1/2 in human Calu-6 cells assessed as induction of ERK1/2 degradation incubated for 48 hrs by Western blot analysis. Type of test: cell-based.
T5 sequence (P27361 whole entry): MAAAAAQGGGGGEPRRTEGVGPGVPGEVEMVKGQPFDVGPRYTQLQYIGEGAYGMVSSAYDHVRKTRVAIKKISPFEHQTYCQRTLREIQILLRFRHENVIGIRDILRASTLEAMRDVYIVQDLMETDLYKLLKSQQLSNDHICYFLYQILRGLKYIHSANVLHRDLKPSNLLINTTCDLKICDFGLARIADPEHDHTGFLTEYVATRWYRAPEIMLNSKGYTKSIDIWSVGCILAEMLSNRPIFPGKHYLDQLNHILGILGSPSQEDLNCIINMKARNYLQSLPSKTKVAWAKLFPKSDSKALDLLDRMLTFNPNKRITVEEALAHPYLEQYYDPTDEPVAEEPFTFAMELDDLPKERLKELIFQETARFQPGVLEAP
T5 sequence (P28482 whole entry): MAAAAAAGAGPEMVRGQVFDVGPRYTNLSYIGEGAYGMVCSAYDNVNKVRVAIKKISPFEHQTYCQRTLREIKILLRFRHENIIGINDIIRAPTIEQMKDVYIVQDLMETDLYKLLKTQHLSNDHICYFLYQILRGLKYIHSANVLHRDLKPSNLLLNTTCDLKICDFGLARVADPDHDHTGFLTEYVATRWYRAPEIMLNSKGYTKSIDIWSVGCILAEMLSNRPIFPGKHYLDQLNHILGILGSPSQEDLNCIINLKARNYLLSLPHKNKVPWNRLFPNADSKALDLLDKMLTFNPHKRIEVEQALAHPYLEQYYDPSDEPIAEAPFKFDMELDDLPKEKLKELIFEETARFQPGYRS
T5 sequence (Q96SW2 whole entry): as the sequence (Q96SW2 whole entry) above
In test [20] the target is T5, Protein cereblon/Mitogen-activated protein kinase 3/Mitogen-activated protein kinase 1. Nature of the test: PROTAC activity at CRBN/ERK1/2 in human HCT-116 cells assessed as induction of ERK1/2 degradation incubated for 48 hrs by Western blot analysis. Type of test: cell-based.
Test [21] concerns MCF7. Nature of the test: Antiproliferative activity against human MCF7 cells.
The test system of another test is T47D. Kind of test: Antiproliferative activity against human T47D cells.
The subject of test [22] is MCF7. Nature of the test: Antiproliferative activity against human MCF7 cells assessed as reduction in cell viability incubated for 48 hrs by MTT assay. Type of test: functional, cell-based. The following applies: MCF7, 48 h.
The test system of test [23] is MCF7. Nature of the test: Antiproliferative activity against human MCF7 cells assessed as reduction in cell viability at 25 uM incubated for 72 hrs by resazurin based assay relative to control. Type of test: functional. On the technique in general: The colour change of resazurin is a common sign of viable cells or microbes.

Usually IC50 stands for the concentration needed to halve the response being measured. For the compound `Cc1cccc(NC(=O)Nc2ccc(-c3cccc4c3c(N)nn4C(=O)CCCNC(=O)C3CC4CC3c3c4cnnc3-c3ccc(NC(=O)CCC(=O)N[C@H](C(=O)N4C[C@H](O)C[C@H]4C(=O)NCc4ccc(-c5scnc5C)cc4)C(C)(C)C)cc3)cc2)c1F` (stereo partly drawn), the IC50 in the test with U-87 MG was more than 100 µM. Besides, the DC50 in [1] amounted to 257 nM.

As usually defined, the Kd is the concentration at which binding is half-saturated. As for `COc1ccc(Br)cc1S(=O)(=O)Nc1cc2c(C)noc2cc1OCCOCCOCCOCCOCCOCCOc1cc2onc(C)c2cc1NS(=O)(=O)c1cc(Br)ccc1OC`, the IC50 in the test with MV4-11 is 450 nM; in the test on LNCaP, 525 nM; in the test with LNCaP C4-2B, 930 nM; in the test with CWR22R, 900 nM; in the test on MOLM-13, 450 nM; with Hs-578T it was 1360 nM. Also, the Kd in test [2] amounted to 741 nM.

With `COC(C)(C)CCC[C@@](C)(O)[C@H]1CC[C@]2(C)[C@@H]1[C@H](O)C[C@@H]1[C@@]3(C)CC[C@H](OCC(=O)N4CCN(CC5CCN(c6ccc7c(c6)CN(C6CCC(=O)NC6=O)C7=O)CC5)CC4)C(C)(C)[C@@H]3CC[C@]12C` (stereo partly drawn), the Activity in test [3] came out at 138.01%; in [4], 33.78%; in test [5], 49.53%; in [6], 65.39%; in test [7] it was 133.45%; in test [8], 147.15%. Also, in the test on A549, the IC50 was determined as 2160 nM.

Usually Emax stands for the greatest response seen or fitted, relative to the assay's reference. For the compound `COc1cc(N2CCN(C(=O)CNc3cccc4c3C(=O)N(C3CCC(=O)NC3=O)C4=O)CC2)ccc1Nc1ncc(Cl)c(Nc2ccccc2S(=O)(=O)C(C)C)n1` (stereo not drawn), the DC50 in test [9] was found to be 4.6 nM; in test [11], 358 nM. The Emax in test [10] amounted to 92.3%; in test [12], 81.3%.

By inhibition is commonly meant the share of the control response that was lost under treatment. A low value points to a response near the control. Regarding `Cc1cc(-c2cc(NC(=O)CCC(=O)NCCOCCOCCc3ccc4c(c3)C(=O)N(C3CCC(=O)NC3=O)C4=O)ccc2Oc2ccccc2)n2cc[nH]c(=O)c12` (stereo not drawn), the inhibition in test [13] is 61.1%; in [14], 92.3%. Also, the IC50 in the test on MV4-11 stood at 0.4 nM; in the test on THP-1, 22.9 nM; in the test with HL-60, 45.6 nM. Besides, the DC50 in test [15] worked out at 0.75 nM. For the same compound, the Emax in test [16] amounted to 95%.

Regarding `Nc1ncnc2c1c(-c1ccc(Oc3ccccc3)cc1)nn2[C@@H]1CCCN(C(=O)CCCCCNc2ccc3c(c2)C(=O)N(C2CCC(=O)NC2=O)C3)C1` (stereo partly drawn), the DC50 in [17] came to 3.8 nM.

In turn, `Cc1ncsc1-c1ccc(CNC(=O)[C@@H]2C[C@@H](O)CN2C(=O)[C@@H](NCCCCNC(=O)CNC(=O)c2cc(Oc3ccc(NC(=O)Nc4ccc(Cl)c(C(F)(F)F)c4)cc3)ccn2)C(C)(C)C)cc1` showed an inhibition in [18] of more than 70%.

For `Cc1cccc(CN2C(=O)c3cc(-c4nc(Nc5ccnc(C#CCCN(C)C)c5)ncc4C)cn3C[C@H]2C)n1`, the IC50 is 2100 nM in the test with HCT-116, 15.9 µM in the test on Calu-6 and more than 30 µM in the test on A-375. Besides, the DC50 in test [19] was determined as 85 nM; in [20], 102 nM.

`Nc1nc(NC2CCC(C#Cc3ccc(C(=O)Nc4ccc5c(c4)CN(C4CCC(=O)NC4=O)C5=O)cc3)CC2)sc1C(=O)c1ccccc1[N+](=O)[O-]` (stereo not drawn): the IC50 with MCF7 [21] stood at 28.9 nM; with T47D it was 41.7 nM.

Consider `Nc1nc2cc(-c3nn(Cc4cn(CCCCCC(=O)Nc5cccc6c5C(=O)N(C5CCC(=O)NC5=O)C6=O)nn4)c4ncnc(N)c34)ccc2o1` (stereo not drawn), for which the IC50 in the test with MCF7 [22] was determined as 87 nM. For the same compound, the Activity in the test on MCF7 [23] is recorded as 90%.
